Experimental data: PMC3253113, “Presenilin Is the Molecular Target of Acidic γ-Secretase Modulators in Living Cells” (PLoS ONE, 2012)
Entries after “also recorded” stand apart in the source; their conditions may differ. Like-named read-outs stand apart in the source and are kept apart here.

Columns and labels:
Aβ42 levels = test: Aβ42-lowering activity in PS70 cells, sandwich ELISA of conditioned media; conditions: CHO, 24 h, read-out: IC50 (Aβ42), Aβ42-lowering activity
PSEN1-CTF [1] = target: T1, PSEN1-CTF (Homo sapiens, UniProt P49768); test: Photo-affinity labeling in living N2a-ANPP cells; format: cell-based; conditions: live N2a-ANPP cells, 0.2 µM photo-probe, UV 365 and 302 nm
Experimental: (§1) Subsequently, cells were UV-irradiated on ice for 30 min at 365 nm and for 30 min at 302 nm. As negative controls, UV irradiation was omitted or cells were incubated with DMSO vehicle or compound AR80, which was structurally identical to AR243 but lacked the biotin moiety. Cells were washed and harvested in PBS and incubated with hypotonic buffer (10 mM Tris pH 7.4, 1x protease inhibitor mix) for 10 min on ice. To prepare cellular membranes, cells were passed 10 times through a 30G needle and centrifuged at 800×g, 10 min, 4°C. The post-nuclear supernatant was centrifuged at 18.000×g, 45 min, 4°C. […] The total protein concentration of the membrane preparations was determined by BCA assay, concentrations and volumes of each sample were adjusted, and 5x RIPA buffer was added to a final concentration of 1x RIPA buffer (150 mM NaCl, 1.0% NP-40, 0.5% sodium deoxycholate, 0.1% SDS, […], pH 8.0). […] Protein concentrations were again determined and adjusted to equal levels prior to the addition of streptavidin magnetic beads (Invitrogen). […] The eluted material was separated on 12% Bis-Tris gels and analyzed by Western blotting. Chemiluminescence was recorded with a LAS 3000 ECL camera system (Fuji Photo Film GmbH, Duesseldorf, Germany) or on CL-XPosure film (Fisher Scientific GmbH, Schwerte, Germany).

PSEN1-NTF [2] = target: T2, PSEN1-NTF (Homo sapiens, UniProt P49768); test: Photo-affinity labeling in living N2a-ANPP cells; format: cell-based; conditions: live N2a-ANPP cells, 0.2 µM photo-probe, UV 365 and 302 nm
Experimental: as §1

endogenous PSEN1-NTF = target: T3, endogenous PSEN1-NTF (Homo sapiens, UniProt P49768); test: Photo-affinity labeling in vitro, HEK293T membrane preparations; format: binding
T3 construct: host or cells: HEK293T membrane preparations

APH-1 = APH-1 (Homo sapiens, UniProt Q96BI3); test: Photo-affinity labeling in vitro, N2a-ANPP membrane preparations; format: binding; conditions: N2a-ANPP membranes, 0.25% CHAPSO, 0.5 µM photo-probe, UV
PEN-2 = PEN-2 (Homo sapiens, UniProt Q9NZ42); test: as above; format: binding; conditions: N2a-ANPP membranes, 0.25% CHAPSO, 0.5 µM photo-probe, UV
Nicastrin = Nicastrin (Homo sapiens, UniProt Q92542); test: as above; format: binding; conditions: N2a-ANPP membranes, 0.25% CHAPSO, 0.5 µM photo-probe, UV
PSEN1-CTF [3] = target: T1, PSEN1-CTF; test: as above; format: binding; conditions: N2a-ANPP membranes, 0.25% CHAPSO, 0.5 µM photo-probe, UV
Aβ38 levels = Aβ38 levels in PS70 cells, sandwich ELISA of conditioned media; conditions: CHO cells with wild type APP and PSEN1, increasing concentrations
PSEN1-CTF [4] = target: T1, PSEN1-CTF; test: Photo-affinity labeling in vitro, HEK293T membrane preparations; format: binding; parameters: host or cells: HEK293T membrane preparations
Experimental: as §1, with “Germany). […]” for “Germany).”

PSEN1-NTF [5] = target: T2, PSEN1-NTF; conditions: N2a-ANPP membranes, cell-free, 0.5 µM AR243 co-incubated with 100 µM competitor
PSEN1-NTF [6] = target: T2, PSEN1-NTF; test: Competition of photo-probe AR243 binding, HEK293T membrane preparations; conditions: HEK293T membranes, excess of competitor (100 µM)
N2a-ANPP cells = test: Cell viability, alamarBlue reagent; format: cell-based
Experimental: Cell viability was assessed using the alamarBlue® reagent (Invitrogen). N2a-ANPP cells were seeded at low density in 96-well plates (4000 cells/well) and cultured for 24 h. The cells were then treated in duplicates with increasing concentrations of the respective compounds or DMSO as vehicle for an additional 24 h. 20 µl alamarBlue® was added to cells cultured in 200 µl medium and incubated overnight. Absorbance was measured with a Paradigm™ microplate reader at 570 nm, using 600 nm as the reference wavelength, and percent viability of vehicle control was calculated.

## CC(C)C#CC(c1ccc(C2(C(F)(F)F)N=N2)cc1)N1CCC(CC(=O)O)CC1c1ccc(C(F)(F)F)cc1 (centres unmarked) [AR80]
Aβ42 levels
  IC50: 190 nM

## O=C(O)CC1CCN(C(C#CCCCCOC(=O)CCCC[C@@H]2SC[C@@H]3NC(=O)N[C@@H]32)c2ccc(C3(C(F)(F)F)N=N3)cc2)C(c2ccc(C(F)(F)F)cc2)C1 (stereo partly drawn) [AR243, 2-(1-(7-((5-((3aS,4S,6aR)-2-oxohexahydro-1H-thieno[3,4-d]imidazol-4-yl)pentanoyl)oxy)-1-(4-(3(trifluoromethyl)-3H-diazirin-3-yl)phenyl)hept-2-yn-1-yl)-2-(4(trifluoromethyl)phenyl)piperidin-4-yl)acetic acid]
PSEN1-CTF [1]
  Photo-affinity labeling of PSEN1-CTF in living cells (Western blotting): did not demonstrate binding
PSEN1-NTF [2]
  Photo-affinity labeling of PSEN1-NTF in living cells (Western blotting): efficient labeling of PSEN1-NTF; also recorded: demonstrated binding of the photo-probe to PSEN1-NTF
Aβ42 levels
  IC50: 290 nM
Endogenous PSEN1-NTF
  Photo-affinity labeling of endogenous PSEN1-NTF (Western blotting): labeling of endogenous PSEN1-NFT
APH-1
  Photo-affinity labeling of APH-1 (Western blotting): did not demonstrate binding
PEN-2
  Photo-affinity labeling of PEN-2 (Western blotting): did not demonstrate binding
Nicastrin
  Photo-affinity labeling of Nicastrin (Western blotting): did not demonstrate binding
PSEN1-CTF [3]
  Photo-affinity labeling of PSEN1-CTF (Western blotting): did not demonstrate binding
Aβ38 levels
  Effect on Aβ38 levels: concomitant increase in Aβ38 levels
PSEN1-CTF [4]
  Photo-affinity labeling of PSEN1-CTF (Western blotting): not PSEN1-CTF

## CC(C)C#CC(c1ccc(Cl)cc1)N1CCC(CC(=O)O)CC1c1ccc(C(F)(F)F)cc1 (centres unmarked) [BB25]
Aβ42 levels
  IC50: 87 nM
PSEN1-NTF [5]
  Competition of AR243 binding to PSEN1-NTF: efficiently reduced the labeling signal
PSEN1-NTF [6]
  Displacement of AR243 from PSEN1-NTF: caused displacement of the photo-probe
N2a-ANPP cells
  Concentrations with dose-dependent cytotoxicity: > 10 µM

## COc1cc(-c2cc(C)c(NC(C)c3ccc(F)cc3)nn2)ccc1-n1cnc(C)c1 (centres unmarked) [Compound 1]
Aβ42 levels
  IC50: 54 nM
PSEN1-NTF [5]
  Competition of AR243 binding to PSEN1-NTF: reduced binding of the photo-probe as effectively as the acidic compound JNJ-40418677

## CCOc1cc(C)c(Nc2ccnc(N3CCN(c4ccc(OC)cc4)C(C)(C)C3)n2)cc1C(C)C [Compound 2]
Aβ42 levels
  IC50: 77 nM
PSEN1-NTF [5]
  Competition of AR243 binding to PSEN1-NTF: only partially competed
PSEN1-NTF [5]; listed as compound 2
  Competition of AR243 binding to PSEN1-NTF: more modest reductions

## COc1cc(/C=C2\CCCN([C@@H](C)c3ccc(F)cc3)C2=O)ccc1-n1cnc(C)c1 [E-2012]
Aβ42 levels
  IC50: 53 nM
PSEN1-NTF [5]
  Competition of AR243 binding to PSEN1-NTF: more modest reductions; also recorded: only partially competed

## CC(C)CC(C(=O)O)c1cc(-c2ccc(C(F)(F)F)cc2)cc(-c2ccc(C(F)(F)F)cc2)c1 (centres unmarked) [JNJ-40418677]
Aβ42 levels
  IC50: 290 nM
